Results taken from patent publication US20210040118A1, “IMMUNOMODULATORS, COMPOSITIONS AND METHODS THEREOF” (BETTA PHARMACEUTICALS CO., LTD, priority 2018, published 2021).
pIC50: −log10 of the molar value.

Target: T1, PD-1/PD-L1 (Homo sapiens, UniProt Q9NZQ7)
T1 construct: Recombinant human PD-L1 protein (19-238) with a His-tag at the C-terminus; purchased AcroBiosystems PD1-H5229 (PD-L1); PD1-H5257 (PD-1)
Assay: PD-1/PD-L1 homogenous time-resolved fluorescence (HTRF) binding assay
Details: recombinant human PD-L1 (19-238) His-tag / human PD-1 (25-167) Fc tag
In short: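 Inhibitors were preincubated 40 min at 25°C with 10 nM His-tagged human PD-L1 (19-238) and 3 nM Fc-tagged human PD-1 (25-167) in PBS pH 7.4 containing Tween-20, BSA and 1% DMSO. After 60 min with europium anti-human IgG and anti-His-APC, 665/620 nm signal ratio gave IC50 via percent-control fit.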

T1 sequence (Q9NZQ7 19-238): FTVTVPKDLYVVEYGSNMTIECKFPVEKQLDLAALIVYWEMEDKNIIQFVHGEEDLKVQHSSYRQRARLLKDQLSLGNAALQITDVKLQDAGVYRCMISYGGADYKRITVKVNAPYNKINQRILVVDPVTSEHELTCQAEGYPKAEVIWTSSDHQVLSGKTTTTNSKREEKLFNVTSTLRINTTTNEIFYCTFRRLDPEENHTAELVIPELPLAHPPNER

pIC50 (class symbols) | pIC50 (numeric values) | Compound
> 7.60 |  | Cc1c(NC(=O)c2nnc([C@H](C)N)s2)cccc1-c1cccc(NC(=O)c2nnc([C@H](C)N)s2)c1C [Example 31, N,N′-(2,2′-dimethyl-[1,1′-biphenyl]-3,3′-diyl)bis(5-((S)-1-aminoethyl)-1,3,4-thiadiazole-2-carboxamide)]
 | 9.13 | Cc1c(NC(=O)c2nc3c(s2)CN(C)CC3)cccc1-c1cccc(NC(=O)c2nc3c(s2)CN(C)CC3)c1C [Example 2, N,N′-(2,2′-dimethyl-[1,1′-biphenyl]-3,3′-diyl)bis(5-methyl-4,5,6,7-tetrahydrothiazolo[5,4-c]pyridine-2-carboxamide)]
7.00 to 7.60 |  | Cc1c(NC(=O)c2nc3c(o2)CNCC3)cccc1-c1cccc(NC(=O)c2nc3c(o2)CNCC3)c1C [Example 13, N,N′-(2,2′-dimethyl-[1,1′-biphenyl]-3,3′-diyl)bis(4,5,6,7-tetrahydrooxazolo[5,4-c]pyridine-2-carboxamide)]
> 7.60 |  | Cc1c(NC(=O)c2ncc(CN3CCCC3)s2)cccc1-c1cccc(NC(=O)c2ncc(CN3CCCC3)s2)c1C [Example 29, N,N′-(2,2′-dimethyl-[1,1′-biphenyl]-3,3′-diyl)bis(5-(pyrrolidin-1-ylmethyl)thiazole-2-carboxamide)]
> 7.60 |  | Cc1c(NC(=O)c2nc3c(s2)CN(CC(C)(C)CO)CC3)cccc1-c1cccc(NC(=O)c2nc3c(s2)CN(CC(C)(C)CO)CC3)c1C [Example 76, N,N′-(2,2′-dimethyl-[1,1′-biphenyl]-3,3′-diyl)bis(5-(3-hydroxy-2,2-dimethylpropyl)-4,5,6,7-tetrahydrothiazolo[5,4-c]pyridine-2-carboxamide)]
> 7.60 |  | O=C(c1nc2c(s1)CNCC2)N1CCc2c(-c3cccc4c3CCN4c3nccc4cc(CNCCO)cnc34)cccc21 [Example 100, (1′-(3-(((2-hydroxyethyl)amino)methyl)-1,7-naphthyridin-8-yl)-[4,4′-biindolin]-1-yl)(4,5,6,7-tetrahydrothiazolo[5,4-c]pyridin-2-yl)methanone]
> 7.60 |  | Cc1c(NC(=O)c2cn3c(n2)CNCC3)cccc1-c1cccc(NC(=O)c2cc3c(s2)CCNC3)c1C [Example 35, N-(2,2′-dimethyl-3′-(5,6,7,8-tetrahydroimidazo[1,2-a]pyrazine-2-carboxamido)-[1,1′-biphenyl]-3-yl)-4,5,6,7-tetrahydrothieno[3,2-c]pyridine-2-carboxamide]
> 7.60 |  | O=C(Nc1cccc(-c2cccc(NC(=O)c3ncc(CNCCO)s3)c2Cl)c1Cl)c1ncc(CNCCO)s1 [Example 66, N,N′-(2,2′-dichloro-[1,1′-biphenyl]-3,3′-diyl)bis(5-(((2-hydroxyethyl)amino)methyl)thiazole-2-carboxamide)]
> 7.60 |  | Cc1c(NC(=O)c2cn3c(n2)CNCC3)cccc1-c1cccc(NC(=O)c2cc3c(s2)CNCC3)c1C [Example 42, N-(2,2′-dimethyl-3′-(5,6,7,8-tetrahydroimidazo[1,2-a]pyrazine-2-carboxamido)-[1,1′-biphenyl]-3-yl)-4,5,6,7-tetrahydrothieno[2,3-c]pyridine-2-carboxamide]
> 7.60 |  | COC(=O)NCCN1CCc2nc(C(=O)N3CCc4c(-c5cccc6c5CCN6C(=O)c5nc6c(s5)CN(CCNC(=O)OC)CC6)cccc43)sc2C1 [Example 130, dimethyl ((([4,4′-biindoline]-1,1′-dicarbonyl)bis(6,7-dihydrothiazolo[5,4-c]pyridine-2,5(4H)-diyl))bis(ethane-2,1-diyl))dicarbamate]
 | 9.43 | O=C(O)CN1CCc2nc(C(=O)N3CCc4c(-c5cccc6c5CCN6C(=O)c5nc6c(s5)CN(CC(=O)O)CC6)cccc43)sc2C1 [Example 103, 2,2′-(([4,4′-biindoline]-1,1′-dicarbonyl)bis(6,7-dihydrothiazolo[5,4-c]pyridine-2,5(4H)-diyl))diacetic acid]
> 7.60 |  | O=C(Nc1cccc(-c2cccc(NC(=O)c3nc4c(s3)CNCC4)c2Cl)c1Cl)c1nc2c(s1)CNCC2 [Example 89, N,N′-(2,2′-dichloro-[1,1′-biphenyl]-3,3′-diyl)bis(4,5,6,7-tetrahydrothiazolo[5,4-c]pyridine-2-carboxamide)]
> 7.60 |  | CN(C)C(=O)CN1CCc2nc(C(=O)N3CCc4c(-c5cccc6c5CCN6C(=O)c5nc6c(s5)CN(CC(=O)N(C)C)CC6)cccc43)sc2C1 [Example 106, 2,2′-(([4,4′-biindoline]-1,1′-dicarbonyl)bis(6,7-dihydrothiazolo[5,4-c]pyridine-2,5(4H)-diyl))bis(N,N-dimethylacetamide)]
 | 9.68 | O=C(c1nc2c(s1)CNCC2)N1CCc2c(-c3cccc4c3CCN4C(=O)c3nc4c(s3)CNCC4)cccc21 [Example 33, [4,4′-biindoline]-1,1′-diylbis((4,5,6,7-tetrahydrothiazolo[5,4-c]pyridin-2-yl)methanone)]
> 7.60 |  | O=C(Nc1cccc(-c2cccc(NC(=O)c3ncc(CNCC(F)(F)F)s3)c2Cl)c1Cl)c1ncc(CNCC(F)(F)F)s1 [Example 68, N,N′-(2,2′-dichloro-[1,1′-biphenyl]-3,3′-diyl)bis(5-(((2,2,2-trifluoroethyl)amino)methyl)thiazole-2-carboxamide)]

Further lines, the compound ahead of its results:

Compound | pIC50 (class symbols) | pIC50 (numeric values)
Cc1c(Nc2nccc3cc(CNCCO)cnc23)cccc1-c1cccc(Nc2nccc3cc(NCCO)cnc23)c1C [Example 6, 2-(((8-((3′-((3-((2-hydroxyethyl)amino)-1,7-naphthyridin-8-yl)amino)-2,2′-dimethyl-[1,1′-biphenyl]-3-yl)amino)-1,7-naphthyridin-3-yl)methyl)amino)ethan-1-ol] | > 7.60 | 
Cc1nc(C(=O)N2CCc3c(-c4cccc5c4CCN5C(=O)c4ncc(CN(C)CCO)s4)cccc32)sc1CN(C)C [Example 115, (5-((dimethylamino)methyl)-4-methylthiazol-2-yl)(1′-(5-(((2-hydroxyethyl)(methyl)amino)methyl)thiazole-2-carbonyl)-[4,4′-biindolin]-1-yl)methanone] | > 7.60 | 
Cc1c(NC(=O)c2nnc(C3(NC(=N)N)CCC3)s2)cccc1-c1cccc(NC(=O)c2nnc(C3(NC(=N)N)CCC3)s2)c1C [Example 38, N,N′-(2,2′-dimethyl-[1,1′-biphenyl]-3,3′-diyl)bis(5-(1-guanidinocyclobutyl)-1,3,4-thiadiazole-2-carboxamide)] | > 7.60 | 
Cc1c(Nc2nccc3cc(CNC(C(=O)O)C(C)C)cnc23)cccc1-c1cccc(Nc2nccc3cc(CNC(C(=O)O)C(C)C)cnc23)c1C (stereo not drawn) [Example 142, 2,2′-(((((2,2′-dimethyl-[1,1′-biphenyl]-3,3′-diyl)bis(azanediyl))bis(1,7-naphthyridine-8,3-diyl))bis(methylene))bis(azanediyl))bis(3-methylbutanoic acid)] | > 7.60 | 
Cc1c(NC(=O)c2ncc(CN3CCCC[C@H]3C(=O)O)s2)cccc1-c1cccc2c1CCN2C(=O)c1ncc(CN2CCCC[C@H]2C(=O)O)s1 [Example 72, (S)-1-((2-((3-(1-(5-(((S)-2-carboxypiperidin-1-yl)methyl)thiazole-2-carbonyl)indolin-4-yl)-2-methylphenyl)carbamoyl)thiazol-5-yl)methyl)piperidine-2-carboxylic acid] | > 7.60 | 
Cc1c(Nc2nccc3cc(CNCCO)cnc23)cccc1-c1cccc2c1CCN2C(=O)C1=NC2CCN(CCC(=O)O)CC2S1 (stereo not drawn) [Example 162, 3-(2-(4-(3-((3-(((2-hydroxyethyl)amino)methyl)-1,7-naphthyridin-8-yl)amino)-2-methylphenyl)indoline-1-carbonyl)-3a,6,7,7a-tetrahydrothiazolo[5,4-c]pyridin-5(4H)-yl)propanoic acid] | > 7.60 | 
CNCc1cnc(C(=O)N2CCc3c(-c4cccc5c4CCN5C(=O)c4ncc(CNC)s4)cccc32)s1 [Example 113, [4,4′-biindoline]-1,1′-diylbis((5-((methylamino)methyl)thiazol-2-yl)methanone)] | > 7.60 | 
Cc1nc(C(=O)Nc2cccc(-c3cccc4c3CCN4C(=O)c3nc(C)c(CN4CCCC[C@H]4C(=O)O)s3)c2C)sc1CN1CCCC[C@H]1C(=O)O [Example 58, (S)-1-((2-(3-(1-(5-(((S)-2-carboxypiperidin-1-yl)methyl)-4-methylthiazole-2-carbonyl)indolin-4-yl)-2-methylphenylcarbamoyl)-4-methylthiazol-5-yl)methyl)piperidine-2-carboxylic acid] | > 7.60 | 
O=C(c1ncc(CNCCO)s1)N1CCc2c(-c3cccc4c3CCN4C(=O)c3ncc(CNCCO)s3)cccc21 [Example 70, [4,4′-biindoline]-1,1′-diylbis((5-(((2-hydroxyethyl)amino)methyl)thiazol-2-yl)methanone)] | > 7.60 | 
COC(=O)N[C@H](C(=O)N1CCc2nc(C(=O)Nc3cccc(-c4cccc(NC(=O)c5ccc6c(n5)CCN(C(=O)[C@@H](NC(=O)OC)C(C)C)C6)c4C)c3C)ccc2C1)C(C)C [Example 169, dimethyl ((2S,2'S)-((((2,2′-dimethyl-[1,1′-biphenyl]-3,3′-diyl)bis(azanediyl))bis(carbonyl))bis(7,8-dihydro-1,6-naphthyridine-2,6(5H)-diyl))bis(3-methyl-1-oxobutane-1,2-diyl))dicarbamate] | > 7.60 | 
CC(c1nc2c(s1)CN(C)CC2)N1CCc2c(-c3cccc4c3CCN4C(C)c3nc4c(s3)CN(C)CC4)cccc21 (stereo not drawn) [Example 47, 1,1′-bis(1-(5-methyl-4,5,6,7-tetrahydrothiazolo[5,4-c]pyridin-2-yl)ethyl)-4,4′-biindoline] | > 7.60 | 
Cc1c(NC(=O)c2nnc(CN)o2)cccc1-c1cccc(NC(=O)c2nnc(CN)o2)c1C [Example 18, N,N′-(2,2′-dimethyl-[1,1′-biphenyl]-3,3′-diyl)bis(5-(aminomethyl)-1,3,4-oxadiazole-2-carboxamide)] | 7.00 to 7.60 | 
